Columns and labels:
Format in all cases: in vivo, mouse
[1] = test system: db/db mice; assay: Histological study of adipose tissue (weights, fat cell size), db/db mice; settings: after 5 week-administration, 1.1 and 2.7 mg/dl in drinking water
Description: 5 week-old male C57BL/KsJ-db/db mice (db/db mice: body weight 19 to 25 g, Japan SLC, Inc.) were purchased and individually fed in tip cages. For the db/db mice, normal pellet diet (CE-2) was administered under free water intake and free food intake. A body weight and a food intake amount over 24 hours were measured every day from the start of feeding. On day 3 after the start of feeding, blood was taken from an orbit after 6 hour-fasting and a blood glucose level and a blood insulin concentration were measured. The db/db mice were divided into three groups (10 mice per each group) so that a body weight, a 24 hour-food intake amount, a blood glucose level, and a blood insulin concentration were equal, and defined to be a control group, a low concentration baclofen treated group, and a high concentration baclofen treated group. After division into the groups, from day 5 after the start of feeding, (±)-baclofen was dissolved in drinking water and 5 week-continuous oral administration to the baclofen treated groups was started. (±)-baclofen was dissolved in drinking water at a concentration of 1.1 mg/dl in the low concentration treated group and at a concentration of 2.7 mg/dl in the high concentration treated group. A food intake amount and a body weight were measured over time during the period of 5 week-administration of (±)-baclofen, blood was taken after the end of the 5-week administration, and the db/db mice were sacrificed by cervical luxation. Brains, epididymal white adipose tissues, subcutaneous white adipose tissues and brown adipose tissues were surgically removed. The brains and brown adipose tissues were frozen in dry ice and liquid nitrogen immediately after the removal and then preserved at −80° C. The epididymal white adipose tissues and subcutaneous white adipose tissues were measured in weights, and then fixed in 4% formaldehyde and preserved at 4° C. […]

[2] = test system: db/db mice; assay: Rectal temperature, oxygen consumption and motor activity, db/db mice
Description: 5 week-old male C57BL/KsJ-db/db mice (db/db mice: body weight 19 to 25 g, Japan SLC, Inc.) were purchased and individually fed in tip cages. For the db/db mice, normal pellet diet (CE-2) was administered under free water intake and free food intake. A body weight and a food intake amount over 24 hours were measured everyday from the start of feeding. On day 3 after the start of feeding, blood was taken from an orbit after 6 hour-fasting and a blood glucose level and a blood insulin concentration were measured. The db/db mice were divided into three groups (10 mice per each group) so that a body weight, a 24 hour-food intake amount, a blood glucose level, and a blood insulin concentration were equal, and defined to be a control group, an R-baclofen treated group, and an S-baclofen treated group. […] After division into the groups, from day 5 after the start of feeding, R-baclofen and S-baclofen were dissolved in drinking water and 5 week-continuous oral administration was started. Both of R-baclofen and S-baclofen were dissolved in drinking water at a concentration of 1.1 mg/dl used in the low concentration treated group in the experiment of baclofen racemic mixture administration. A food intake amount and a body weight were measured over time, and a rectal temperature was measured 5 weeks after the start of the administration. Blood was taken after the 5-week administration of baclofen, and the db/db mice were sacrificed by cervical luxation.
R-baclofen and S-baclofen were administered to db/db/mice and (±)-baclofen was administered to db/^+m mice respectively for 5 weeks, and rectal temperatures were then continuously measured for 3 days at 20 o'clock immediately before the dark period when feed intake was started in the mice. The method of measuring rectal temperatures was as follows. That is, the rectal temperatures were measured by using a digital thermistor (manufactured by NATSUME SEISAKUSHO CO., LTD.).
(±)-baclofen was orally administered to db/db mice and DIO mice for 5 weeks and rectal temperatures were measured 5 weeks after the start of the administration, and oxygen consumptions and motor activity were measured by using a small animal metabolism measuring system (model MK-5000: Muromachi Kikai Co., Ltd.).

[3] = test system: db/^+m mice; assay: Food intake amount and body weight, 5 week-continuous oral administration, non-obese db/+m mice; settings: (±)-baclofen 2.7 mg/dl in drinking water, 5 weeks
Description: 5 week-old male C57BL/KsJ-db/^+m mice (db/^+m mice: body weight 19 to 23 g, Japan SLC, Inc.) were purchased and individually fed in tip cages. To the db/^+m mice, normal pellet diet (CE-2) was administered under free water intake and free food intake. A body weight and a food intake amount over 24 hours were measured every day from the start of feeding. On day 3 after the start of feeding, blood was taken from an orbit after 6 hour-fasting and a blood glucose level and a blood insulin concentration were measured. The db/^+m mice were divided into two groups (10 mice per each group) so that a body weight, a 24 hour-food intake amount, a blood glucose level, and a blood insulin concentration were equal, and defined to be a control group and a baclofen treated group. After division into the groups, from day 5 after the start of feeding, (±)-baclofen was dissolved in drinking water and 5 week-continuous oral administration was started in the baclofen treated group. (±)-baclofen was dissolved in drinking water at a concentration of 2.7 mg/dl used in the high concentration treated group in the experiment of db/db mice. A food intake amount and a body weight of the db/^+m mice were measured over time, and a rectal temperature was measured 5 weeks after the start of the administration. Blood was taken after the 5-week administration of (±)-baclofen, and the db/^+m mice were sacrificed by cervical luxation.
5 week-old male C57BL/KsJ-db/db mice (db/db mice: body weight 19 to 25 g, Japan SLC, Inc.) were purchased and individually fed in tip cages. Normal pellet diet (CE-2) was administered to the db/db mice under free water intake and free food intake. A body weight and a food intake amount over 24 hours were measured every day from the start of feeding. On day 3 after the start of feeding, blood was taken from an orbit after 6 hour-fasting and a blood glucose level and a blood insulin concentration were measured. The db/db mice were divided into three groups (10 mice per each group) so that a body weight, a 24 hour-food intake amount, a blood glucose level, and a blood insulin concentration were equal and defined to be a control group, an SKF97541 treated group and a 3-APPA treated group. SKF97541 and 3-APPA were dissolved in drinking water at respective concentrations of 10×10^−6 M and 100×10^−6 M, and continuously orally administered for 5 weeks, and a food intake amount and a body weight were measured over time during the administration period. SKF97541 (10×10^−6 M) or 3-APPA (100×10^−6M) was dissolved in drinking water and orally administered also to db/^+m mice, and a food intake amount and a body weight were measured over time in the same manner.

NCC(CC(=O)O)c1ccc(Cl)cc1 (racemic) [(±)-baclofen, (RS)-4-amino-3-(4-chlorophenyl)butanoic acid]
size of a fat cell (epididymal white adipose tissue, H-E stain) [1]: decreases
weight of epididymal white adipose tissues [1]: Significant decreases
weight of subcutaneous white adipose tissue [1]: no significant decrease
oxygen consumption ([2]; (±)-baclofen oral 5 weeks): significantly increased
body temperature (rectal) ([2]; (±)-baclofen oral, 5 weeks after start of administration): significantly raised
body weight [3]: did not give significant effects
food intake amount [3]: did not give significant effects

Source: patent US20100197789A1, “ANTI-OBESITY AGENT AND USE THEREOF” (National University Corporation Nagoya University, priority 2006, published 2010)
